# Source: PubChem BioAssay AID1963969 (Molecular Pharmacology Branch, DTP, NCI, 2024)
# System: 817829-284-R-J1-PDC multi-cell spheroid viability
# Assay: Anticancer human tumor 817829-284-R-J1-PDC patient-derived colon adenocarcinoma cell line growth inhibition [PI3K]
# Conditions: for IC50: curve of first compound; for viability, T/C: stronger effect = lower value
# Procedure, shortened: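 Viability of mixed-cell spheroids was determined after exposure to pairwise combinations, one partner being inavolisib, alpelisib, duvelisib or copanlisib. Highest tested concentration matched clinical Cmax where known and 10 microM where not, descending in half-log steps.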
# [1] = second compound 0.0316 µM, first compound 0.0316 µM
# [2] = second compound 0.0316 µM, first compound 0.1 µM
# [3] = second compound 0.1 µM, first compound 0.0316 µM
# [4] = second compound 0.1 µM, first compound 0.1 µM
# [5] = second compound 0.316 µM, first compound 0.0316 µM
# [6] = second compound 0.316 µM, first compound 0.1 µM
# [7] = second compound 1 µM, first compound 0.0316 µM
# [8] = second compound 1 µM, first compound 0.1 µM
# [9] = second compound 3.16 µM, first compound 0.0316 µM
# [10] = second compound 3.16 µM, first compound 0.1 µM
# [11] = second compound 10 µM, first compound 0.0316 µM
# [12] = second compound 10 µM, first compound 0.1 µM
# 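Further: spheroids exposed to agents for seven days before readout.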
# 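Wherever viability, T/C is given: percent of vehicle DMSO control viability which is 100%.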
structure (smiles),measurement,setting,value
CC(=O)c1c(C)c2cnc(Nc3ccc(N4CCNCC4)cn3)nc2n(C2CCCC2)c1=O + Cc1nc(NC(=O)N2CCCC2C(N)=O)sc1-c1ccnc(C(C)(C)C(F)(F)F)c1,IC50,second compound 0.0316 µM,27.2 nM
same,IC50,second compound 0.1 µM,4.34 nM
same,IC50,second compound 0.316 µM,23.6 nM
same,IC50,second compound 1 µM,3.26 nM
same,IC50,second compound 3.16 µM,2.05 nM
same,IC50,second compound 10 µM,< 0.316 nM
same,"viability, T/C","second compound 0.0316 µM, first compound 0.000316 µM",88.4%
same,"viability, T/C","second compound 0.0316 µM, first compound 0.001 µM",96.1%
same,"viability, T/C","second compound 0.0316 µM, first compound 0.00316 µM",70.8%
same,"viability, T/C","second compound 0.0316 µM, first compound 0.01 µM",60.1%
same,"viability, T/C",[1],52.8%
same,"viability, T/C",[2],38.2%
same,"viability, T/C","second compound 0.1 µM, first compound 0.000316 µM",71.2%
same,"viability, T/C","second compound 0.1 µM, first compound 0.001 µM",79.7%
same,"viability, T/C","second compound 0.1 µM, first compound 0.00316 µM",52.4%
same,"viability, T/C","second compound 0.1 µM, first compound 0.01 µM",45%
same,"viability, T/C",[3],38.1%
same,"viability, T/C",[4],47.6%
same,"viability, T/C","second compound 0.316 µM, first compound 0.000316 µM",75.1%
same,"viability, T/C","second compound 0.316 µM, first compound 0.001 µM",53.8%
same,"viability, T/C","second compound 0.316 µM, first compound 0.00316 µM",65.9%
same,"viability, T/C","second compound 0.316 µM, first compound 0.01 µM",66.9%
same,"viability, T/C",[5],34.7%
same,"viability, T/C",[6],44.7%
same,"viability, T/C","second compound 1 µM, first compound 0.000316 µM",43.6%
same,"viability, T/C","second compound 1 µM, first compound 0.001 µM",55.4%
same,"viability, T/C","second compound 1 µM, first compound 0.00316 µM",51.6%
same,"viability, T/C","second compound 1 µM, first compound 0.01 µM",42.1%
same,"viability, T/C",[7],37.3%
same,"viability, T/C",[8],37%
same,"viability, T/C","second compound 3.16 µM, first compound 0.000316 µM",62.5%
same,"viability, T/C","second compound 3.16 µM, first compound 0.001 µM",58.9%
same,"viability, T/C","second compound 3.16 µM, first compound 0.00316 µM",38.3%
same,"viability, T/C","second compound 3.16 µM, first compound 0.01 µM",49.3%
same,"viability, T/C",[9],32%
same,"viability, T/C",[10],31.5%
same,"viability, T/C","second compound 10 µM, first compound 0.000316 µM",51.8%
same,"viability, T/C","second compound 10 µM, first compound 0.001 µM",43.8%
same,"viability, T/C","second compound 10 µM, first compound 0.00316 µM",40.7%
same,"viability, T/C","second compound 10 µM, first compound 0.01 µM",47.5%
same,"viability, T/C",[11],43.8%
same,"viability, T/C",[12],21.3%
CC1(C)CCC(CN2CCN(c3ccc(C(=O)NS(=O)(=O)c4ccc(NCC5CCOCC5)c([N+](=O)[O-])c4)c(Oc4cnc5[nH]ccc5c4)c3)CC2)=C(c2ccc(Cl)cc2)C1 + Cc1nc(NC(=O)N2CCCC2C(N)=O)sc1-c1ccnc(C(C)(C)C(F)(F)F)c1,IC50,second compound 0.0316 µM,5010 nM
same,IC50,second compound 0.1 µM,4250 nM
same,IC50,second compound 0.316 µM,3890 nM
same,IC50,second compound 1 µM,3470 nM
same,IC50,second compound 3.16 µM,4740 nM
same,IC50,second compound 10 µM,2430 nM
same,"viability, T/C",[1],86.7%
same,"viability, T/C",[2],69.7%
same,"viability, T/C","second compound 0.0316 µM, first compound 0.316 µM",119%
same,"viability, T/C","second compound 0.0316 µM, first compound 1 µM",42.6%
same,"viability, T/C","second compound 0.0316 µM, first compound 3.16 µM",84.3%
same,"viability, T/C","second compound 0.0316 µM, first compound 10 µM",4.12%
same,"viability, T/C",[3],97.7%
same,"viability, T/C",[4],67.1%
same,"viability, T/C","second compound 0.1 µM, first compound 0.316 µM",98.3%
same,"viability, T/C","second compound 0.1 µM, first compound 1 µM",87.8%
same,"viability, T/C","second compound 0.1 µM, first compound 3.16 µM",65.6%
same,"viability, T/C","second compound 0.1 µM, first compound 10 µM",4.95%
same,"viability, T/C",[5],67.2%
same,"viability, T/C",[6],58.8%
same,"viability, T/C","second compound 0.316 µM, first compound 0.316 µM",72.7%
same,"viability, T/C","second compound 0.316 µM, first compound 1 µM",70.4%
same,"viability, T/C","second compound 0.316 µM, first compound 3.16 µM",58.6%
same,"viability, T/C","second compound 0.316 µM, first compound 10 µM",6.66%
same,"viability, T/C",[7],65.9%
same,"viability, T/C",[8],67.7%
same,"viability, T/C","second compound 1 µM, first compound 0.316 µM",82.7%
same,"viability, T/C","second compound 1 µM, first compound 1 µM",72.6%
same,"viability, T/C","second compound 1 µM, first compound 3.16 µM",54.1%
same,"viability, T/C","second compound 1 µM, first compound 10 µM",3.59%
same,"viability, T/C",[9],73.6%
same,"viability, T/C",[10],62.2%
same,"viability, T/C","second compound 3.16 µM, first compound 0.316 µM",104%
same,"viability, T/C","second compound 3.16 µM, first compound 1 µM",72.2%
same,"viability, T/C","second compound 3.16 µM, first compound 3.16 µM",74.2%
same,"viability, T/C","second compound 3.16 µM, first compound 10 µM",5.23%
same,"viability, T/C",[11],81.1%
same,"viability, T/C",[12],89.8%
same,"viability, T/C","second compound 10 µM, first compound 0.316 µM",57.6%
same,"viability, T/C","second compound 10 µM, first compound 1 µM",78.8%
same,"viability, T/C","second compound 10 µM, first compound 3.16 µM",42%
same,"viability, T/C","second compound 10 µM, first compound 10 µM",2.17%
